Experimental findings from patent US20260193170A1 (University of Copenhagen, priority 2022, published 2026) are described below.

As a reminder, the Ki is a measure of affinity in units of concentration, obtained from inhibition or displacement.

The structures appear in SMILES notation.

The test has as its target T1, human Keap1 Kelch domain (Homo sapiens, UniProt Q14145).
T1 construct: human Keap1 Kelch domain (residue 321-609, UniProt Q14145); made in house; host or cells: Escherichia coli BL21 (DE3) pLysS, pRSET A vector
Kind of test: Fluorescence polarization (FP) competition assay, Cy5-Nrf2 peptide probe. The test is classed as binding. To be noted: heterologous competition FP; Keap1 Kelch 14 nM, Cy5-Nrf2 probe 3 nM, 4% DMSO; mean ± SEM. How it is done:
The binding affinities between the fluorescent peptide probe Cy5-Nrf2 (SEQ: Cy5-[…]-NH2) and the human Keap1 Kelch domain were determined as Kd values by saturation binding experiments, where increasing concentrations of Keap1 (0-300 nM) were added to a fixed concentration of peptide probe (3 nM). The assay was performed in a 1× HBSTET buffer (10 mM HEPES, 150 mM NaCl, 0.005% Tween20, 3 mM ethylenediaminetetraacetic acid (EDTA), 1 mM TCEP, pH=7.4) using black flat-bottom 384-well plates (Corning Life Sciences, NY), a volume of 30 μL/well, and a final DMSO concentration of 4% or 8%. The assay plate was spun down to ascertain proper mixing and removal of potential air bubbles and incubated for 10-15 min at room temperature before measuring the FP levels on a Safire2 plate reader (Tecan, Mannedorf, Switzerland). The g-factor was adjusted at each experiment so that a series of three blank wells containing probe but no Keap1 Kelch defined the baseline FP value. The Cy5-Nrf2 probe was measured at excitation/emission values of 635:670 nm. The FP values were fitted to the one-site specific binding equation: Y=Bmax×X/(Kd+X), with Bmax being the maximal FP value, X the Keap1 Kelch concentration, and Y the variable FP values. The Kd values were derived from the resulting binding saturation curve as being equal to the Keap1 Kelch concentration, where the curve is half-saturated.
The affinities between nonfluorescent small molecule Keap1 inhibitors and Keap1 Kelch were determined as Ki values in a heterologous competition FP binding assay. This was done by adding increasing concentration of test compound (2-fold serial dilutions, 12 concentrations tested per inhibition curve as duplicates) to a fixed concentration of Keap1 Kelch (14 nM) and the Cy5-Nrf2 peptide probe (3 nM) in the same HBSTET buffer and conditions as described above (final DMSO concentrations were 4%). FP values were fitted to the equation Y=Bottom+(Top−Bottom)/[1+(10^HillSlope×(log IC50−X))], where X is the logarithmic value of compound concentration. Hereby, the IC50 value was obtained, which together with the […] value and probe and Keap1 Kelch concentrations was used to calculate the theoretical competitive inhibition constant, the Ki value. 43 Ki values are shown as mean±SEM (standard error of mean) if based on two or more individual measurements.
(In general: Polarisation of emitted light reports the rotation of a fluorescent probe.)

T1 sequence (Q14145 321-609): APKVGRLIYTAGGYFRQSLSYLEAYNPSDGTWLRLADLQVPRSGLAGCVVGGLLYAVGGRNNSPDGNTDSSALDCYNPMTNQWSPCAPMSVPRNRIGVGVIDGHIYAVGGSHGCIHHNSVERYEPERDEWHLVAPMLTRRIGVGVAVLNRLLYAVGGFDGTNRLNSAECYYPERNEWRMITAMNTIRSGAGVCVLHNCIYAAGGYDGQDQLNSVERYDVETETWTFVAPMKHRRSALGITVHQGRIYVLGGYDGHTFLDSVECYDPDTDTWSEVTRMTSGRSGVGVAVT

Regarding `O=C(O)CCc1ccc2ccc(OCC(=O)NC3CCCCC3)cc2c1` [1a, 3-(7-(2-(Cyclohexylamino)-2-oxoethoxy)naphthalen-2-yl)propanoic acid], the Ki was 14 ± 0.8 µM.

On to `O=C(O)CCc1ccc2ccc(OCC(=O)NC3CCOCC3)cc2c1` [1b, 3-(7-(2-Oxo-2-((tetrahydro-2H-pyran-4-yl)amino)ethoxy)naphthalen-2-yl)propanoic acid], for which the Ki was determined as 38 ± 3 µM. As to `O=C(O)CCc1ccc2ccc(OCC(=O)NN3CCOCC3)cc2c1` [1c, 3-(7-(2-Morpholinoamino-2-oxoethoxy)naphthalen-2-yl)propanoic acid], the Ki is 268 ± 29 µM. For `O=C(O)CCc1ccc2ccc(OCC(=O)NC3CCCCCC3)cc2c1` [1d, 3-(7-(2-(Cycloheptylamino)-2-oxoethoxy)naphthalen-2-yl)propanoic acid], the Ki worked out at 6 ± 0.3 µM. For `COc1ccc(NC(=O)COc2ccc3ccc(CCC(=O)O)cc3c2)cc1` [1e, 3-(7-(2-((4-Methoxyphenyl)amino)-2-oxoethoxy)naphthalen-2-yl)propanoic acid], the Ki was 75 ± 10 µM. The result for `Cc1cc(C)c(NC(=O)COc2ccc3ccc(CCC(=O)O)cc3c2)c(C)c1` [1f, 3-(7-(2-(Mesitylamino)-2-oxoethoxy)naphthalen-2-yl)propanoic acid] reads 22 ± 0.8 µM; that for `Cc1cc(C)c(C)c(NC(=O)COc2ccc3ccc(CCC(=O)O)cc3c2)c1C` [1g, 3-(7-(2-Oxo-2-((2,3,5,6-tetramethylphenyl)amino)ethoxy)naphthalen-2-yl)propanoic acid], 196 ± 24 µM. With `O=C(O)CCc1ccc2ccc(OCC(=O)Nc3ccccc3)cc2c1` [1h, 3-(7-(2-oxo-2-(phenylamino)ethoxy)naphthalen-2-yl)propanoic acid] the figure was 7.8 ± 0.1 µM; with `O=C(O)CC(c1ccccc1)c1ccc2ccc(OCC(=O)NC3CCCCCC3)cc2c1` (stereo not shown) [2a, 3-(7-(2-(Cycloheptylamino)-2-oxoethoxy)naphthalen-2-yl)-3-phenylpropanoic acid], 1.1 ± 0.1 µM; with `O=C(O)CC(c1ccc(O)cc1)c1ccc2ccc(OCC(=O)NC3CCCCCC3)cc2c1` (stereo not shown) [2b, 3-(7-(2-(Cycloheptylamino)-2-oxoethoxy)naphthalen-2-yl)-3-(4-hydroxyphenyl)propanoic acid], 0.181 ± 0.02 µM. `O=C(O)CC(c1ccc(Cl)cc1)c1ccc2ccc(OCC(=O)NC3CCCCCC3)cc2c1` (stereo not shown) [2c, 3-(4-Chlorophenyl)-3-(7-(2-(cycloheptylamino)-2-oxoethoxy)naphthalen-2-yl)propanoic acid]: the Ki was 0.294 ± 0.03 µM. Consider `COc1ccc(C(CC(=O)O)c2ccc3ccc(OCC(=O)NC4CCCCCC4)cc3c2)cc1` (stereo not shown) [2d, 3-(7-(2-(Cycloheptylamino)-2-oxoethoxy)naphthalen-2-yl)-3-(4-methoxyphenyl)propanoic acid], for which the Ki amounted to 0.032 ± 0.03 µM. For the molecule `CCOc1ccc(C(CC(=O)O)c2ccc3ccc(OCC(=O)NC4CCCCCC4)cc3c2)cc1` (stereo not shown) [2e, 3-(7-(2-(Cycloheptylamino)-2-oxoethoxy)naphthalen-2-yl)-3-(4-ethoxyphenyl)propanoic acid], the Ki was 0.041 ± 0.005 µM. The result for `CC(C)Oc1ccc(C(CC(=O)O)c2ccc3ccc(OCC(=O)NC4CCCCCC4)cc3c2)cc1` (stereo not shown) [2f, 3-(7-(2-(Cycloheptylamino)-2-oxoethoxy)naphthalen-2-yl)-3-(4-isopropoxyphenyl)propanoic acid] reads 0.101 ± 0.005 µM; that for `O=C(O)CC(c1cccc(O)c1)c1ccc2ccc(OCC(=O)NC3CCCCCC3)cc2c1` (stereo not shown) [2g, 3-(7-(2-(Cycloheptylamino)-2-oxoethoxy)naphthalen-2-yl)-3-(3-hydroxyphenyl)propanoic acid], 0.203 ± 0.03 µM. With `COc1cccc(C(CC(=O)O)c2ccc3ccc(OCC(=O)NC4CCCCCC4)cc3c2)c1` (stereo not shown) [2h, 3-(7-(2-(Cycloheptylamino)-2-oxoethoxy)naphthalen-2-yl)-3-(3-methoxyphenyl)propanoic acid] the figure was 0.284 ± 0.03 µM. With `O=C(O)CC(c1cccc(Cl)c1)c1ccc2ccc(OCC(=O)NC3CCCCCC3)cc2c1` (stereo not shown) [2i, 3-(3-Chlorophenyl)-3-(7-(2-(cycloheptylamino)-2-oxoethoxy)naphthalen-2-yl)propanoic acid] the figure was 0.054 ± 0.006 µM; with `COc1ccc(C(CC(=O)O)c2ccc3ccc(OCC(=O)NC4CCCCCC4)cc3c2)cc1C` (stereo not shown) [2j, 3-(7-(2-(Cycloheptylamino)-2-oxoethoxy)naphthalen-2-yl)-3-(4-methoxy-3-methylphenyl)propanoic acid], 0.61 ± 0.06 µM; with `COc1ccc(C(CC(=O)O)c2ccc3ccc(OCC(=O)NC4CCCCCC4)cc3c2)c(C)c1` (stereo not shown) [2k, 3-(7-(2-(Cycloheptylamino)-2-oxoethoxy)naphthalen-2-yl)-3-(4-methoxy-2-methylphenyl)propanoic acid], 0.027 ± 0.003 µM. Take `Cc1c(Cl)cccc1C(CC(=O)O)c1ccc2ccc(OCC(=O)NC3CCCCCC3)cc2c1` (stereo not shown) [2l, 3-(3-chloro-2-methylphenyl)-3-(7-(2-(cycloheptylamino)-2-oxoethoxy)naphthalen-2-yl)propanoic acid]: the Ki was found to be 0.06 ± 0.008 µM. With `O=C(O)CC(c1ccc2c(c1)OCO2)c1ccc2ccc(OCC(=O)NC3CCCCCC3)cc2c1` (stereo not shown) [2m, 3-(benzo[d][1,3]dioxol-5-yl)-3-(7-(2-(cycloheptylamino)-2-oxoethoxy)naphthalen-2-yl)propanoic acid] the figure was 0.023 ± 0.002 µM; with `Cc1cc2c(cc1C(CC(=O)O)c1ccc3ccc(OCC(=O)NC4CCCCCC4)cc3c1)OCO2` (stereo not shown) [2n, 3-(7-(2-(cycloheptylamino)-2-oxoethoxy)naphthalen-2-yl)-3-(6-methylbenzo[d][1,3]dioxol-5-yl)propanoic acid], 0.008 ± 0.002 µM; with `COc1cc(C(CC(=O)O)c2ccc3ccc(OCC(=O)NC4CCCCCC4)cc3c2)cc2nnn(C)c12` (stereo not shown) [2o, 3-(7-(2-(cycloheptylamino)-2-oxoethoxy)naphthalen-2-yl)-3-(7-methoxy-1-methyl-1H-benzo[d][1,2,3]triazol-5-yl)propanoic acid], 0.0035 ± 0.0006 µM.

For the molecule `CCn1nnc2c(C)c(C(CC(=O)O)c3ccc4ccc(OCC(=O)NC5CCCCCC5)cc4c3)ccc21` (stereo not shown) [2p, 3-(7-(2-(cycloheptylamino)-2-oxoethoxy)naphthalen-2-yl)-3-(1-ethyl-4-methyl-1H-benzo[d][1,2,3]triazol-5-yl)propanoic acid], the Ki turned out to be 0.0059 ± 0.0007 µM. Consider `O=C(O)CC(c1ccc2c(c1)CCO2)c1ccc2ccc(OCC(=O)NC3CCCCCC3)cc2c1` (stereo not shown) [2q, 3-(7-(2-(cycloheptylamino)-2-oxoethoxy)naphthalen-2-yl)-3-(2,3-dihydrobenzofuran-5-yl)propanoic acid], for which the Ki came out at 0.036 ± 0.003 µM. The result for `O=C(O)CC(c1ccc2c(c1)OC(F)(F)O2)c1ccc2ccc(OCC(=O)NC3CCCCCC3)cc2c1` (stereo not shown) [2r, 3-(7-(2-(cycloheptylamino)-2-oxoethoxy)naphthalen-2-yl)-3-(2,2-difluorobenzo[d][1,3]dioxol-5-yl)propanoic acid] reads 0.034 ± 0.005 µM; that for `O=C(O)CC(c1ccc2c(c1)OCCO2)c1ccc2ccc(OCC(=O)NC3CCCCCC3)cc2c1` (stereo not shown) [2s, 3-(7-(2-(cycloheptylamino)-2-oxoethoxy)naphthalen-2-yl)-3-(2,3-dihydrobenzo[b][1,4]dioxin-6-yl)propanoic acid], 0.015 ± 0.003 µM. With `O=C(O)CC(c1ccc2ccc(OCC(=O)NC3CCCCCC3)cc2c1)c1ccc2occc2c1` (stereo not shown) [2t, 3-(Benzofuran-5-yl)-3-(7-(2-(cycloheptylamino)-2-oxoethoxy)naphthalen-2-yl)propanoic acid] the figure was 0.038 ± 0.002 µM.
